Test results: ChEMBL document CHEMBL5113434, “Discovery of novel Thieno[2,3-d]imidazole derivatives as agonists of human STING for antitumor immunotherapy using systemic administration” (Eur J Med Chem, 2022)
Calls of active or inactive are those of the source. No cut-off for these calls is given here.

Assays:
[1] = target: T1, Stimulator of interferon genes protein (Homo sapiens, UniProt Q86WV6); assay: Agonist activity at STING in human THP1-Dual cells assessed as fold change in ISG activation at 10 uM incubated for 24 hrs by Quanti-luc reagent based assay relative to control; type: cell-based; settings: filed as agonist
Target sequence in this assay (Q86WV6 whole entry): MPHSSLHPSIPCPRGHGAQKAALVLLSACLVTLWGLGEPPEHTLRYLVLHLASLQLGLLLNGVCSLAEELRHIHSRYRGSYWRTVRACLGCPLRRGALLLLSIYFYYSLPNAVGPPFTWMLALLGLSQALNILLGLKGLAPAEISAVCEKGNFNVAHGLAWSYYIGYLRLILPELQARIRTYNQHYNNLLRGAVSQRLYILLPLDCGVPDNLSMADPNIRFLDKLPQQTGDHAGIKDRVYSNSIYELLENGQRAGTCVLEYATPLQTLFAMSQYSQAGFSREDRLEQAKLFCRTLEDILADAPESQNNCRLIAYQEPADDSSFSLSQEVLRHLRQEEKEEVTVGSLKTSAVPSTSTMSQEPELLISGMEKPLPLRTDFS

[2] = target: T2, Stimulator of interferon genes protein (Mus musculus) (UniProt Q3TBT3); assay: Agonist activity at STING in mouse RAW-Lucia ISG cells assessed as fold change in ISG activation at 50 uM incubated for 24 hrs by Quanti-luc reagent based assay relative to control; type: cell-based; settings: filed as agonist
T2 sequence (whole entry): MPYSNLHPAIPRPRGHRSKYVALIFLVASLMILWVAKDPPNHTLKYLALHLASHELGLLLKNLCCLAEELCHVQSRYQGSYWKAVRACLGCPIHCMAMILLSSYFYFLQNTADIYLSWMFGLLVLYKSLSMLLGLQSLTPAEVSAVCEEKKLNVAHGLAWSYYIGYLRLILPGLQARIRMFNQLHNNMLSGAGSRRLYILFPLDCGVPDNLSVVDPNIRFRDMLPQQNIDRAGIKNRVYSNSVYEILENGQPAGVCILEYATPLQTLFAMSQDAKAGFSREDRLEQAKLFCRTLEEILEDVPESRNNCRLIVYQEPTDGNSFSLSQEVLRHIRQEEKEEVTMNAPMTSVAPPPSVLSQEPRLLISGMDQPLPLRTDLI

[3] = target: T1, Stimulator of interferon genes protein; assay: Agonist activity at STING in human THP1-Dual cells assessed as ISG activation incubated for 24 hrs by Quanti-luc reagent based assay; type: cell-based
Target sequence in this assay (Q86WV6 whole entry): as the sequence (Q86WV6 whole entry) above

[4] = target: T3, Stimulator of interferon genes protein (Mus musculus, UniProt Q3TBT3); assay: Agonist activity at STING in mouse RAW-Lucia ISG cells assessed as ISG activation incubated for 24 hrs by Quanti-luc reagent based assay; type: cell-based
T3 sequence (Q3TBT3 whole entry): T2 sequence (whole entry)

[5] = target: T1, Stimulator of interferon genes protein; assay: Agonist activity at STING in human THP-1 cells; type: cell-based
Target sequence in this assay (Q86WV6 whole entry): as the sequence (Q86WV6 whole entry) above

[6] = target: T1, Stimulator of interferon genes protein; assay: Agonist activity at STING (unknown origin)
Target sequence in this assay (Q86WV6 whole entry): as the sequence (Q86WV6 whole entry) above

[7] = Toxicity in BALB/c mouse xenografted with 4T1 cells assessed as body weight loss at 10 to 20 mg/kg, iv administered on day 1,4,7 and measured for 20 days; type: organism-based; settings: in vivo, 480 h, dose 10-20 mg/kg, time 20 day
[8] = tested on: Stimulator of interferon genes protein (Homo sapiens), Q86WV6 [UNDEFINED MUTATION]; assay: Binding affinity to human STING R232 mutant assessed as thermal stability by measuring change in melting temperature by differential scanning fluorimetry; settings: filed as agonist
[9] = tested on: Stimulator of interferon genes protein (Homo sapiens), Q86WV6 [R293Q]; assay: Binding affinity to human STING 293Q mutant assessed as thermal stability by measuring change in melting temperature by differential scanning fluorimetry; settings: filed as agonist
[10] = tested on: Stimulator of interferon genes protein (Homo sapiens), Q86WV6 [G230A,R293Q]; assay: Binding affinity to human STING AQ mutant assessed as thermal stability by measuring change in melting temperature by differential scanning fluorimetry; settings: filed as agonist
Homo sapiens = organism: Homo sapiens; assay: Binding affinity to human STING H232 mutant assessed as thermal stability by measuring change in melting temperature by differential scanning fluorimetry; settings: filed as agonist
Mus musculus = organism: Mus musculus; assay: Binding affinity to mouse STING R231 mutant assessed as thermal stability by measuring change in melting temperature by differential scanning fluorimetry; settings: filed as agonist
[11] = target: T1, Stimulator of interferon genes protein; assay: Binding affinity to His6-tagged human wild type STING R232 variant by homogeneous time-resolved fluorescence assay
Target sequence in this assay (Q86WV6 whole entry, looked up, change not shown): as the sequence (Q86WV6 whole entry) above

[12] = Half life in BALB/c mouse at 1 mg/kg, iv measured up to 24 hrs by UPLC-MS/MS analysis; type: ADME, organism-based; settings: in vivo
[13] = AUClast in BALB/c mouse at 1 mg/kg, iv measured up to 24 hrs by UPLC-MS/MS analysis; type: ADME, organism-based; design: time < 24 hrs, dose 1 mg/kg, route iv; settings: in vivo
[14] = Observed AUC infinity in BALB/c mouse at 1 mg/kg, iv measured up to 24 hrs by UPLC-MS/MS analysis; type: ADME, organism-based; design: dose 1 mg/kg, time < 24 hrs, route iv; settings: in vivo
[15] = Observed clearance in BALB/c mouse at 1 mg/kg, iv measured up to 24 hrs by UPLC-MS/MS analysis; type: ADME, organism-based; settings: in vivo
[16] = Observed volume of distribution at steady state in BALB/c mouse at 1 mg/kg, iv measured up to 24 hrs by UPLC-MS/MS analysis; type: ADME, organism-based; settings: in vivo, read-out: Vdss
[17] = target: T1, Stimulator of interferon genes protein; assay: Agonist activity at human STING in human THP1-Dual cells assessed as activation of ISG signaling pathway measured after 24 hrs by Quanti-luc reagent based assay; type: cell-based; settings: filed as agonist, dose 0.0001-1 µM, DDE = dose-dependent effect
Target sequence in this assay (Q86WV6 whole entry): as the sequence (Q86WV6 whole entry) above

[18] = target: T1, Stimulator of interferon genes protein; assay: Agonist activity at human STING in human THP1-Dual cells assessed as activation of NF-kappB signaling pathway measured after 24 hrs by Quanti-luc reagent based assay; type: cell-based; settings: filed as agonist, dose 0.0001-1 µM, DDE = dose-dependent effect
Target sequence in this assay (Q86WV6 whole entry): as the sequence (Q86WV6 whole entry) above

[19] = target: T1, Stimulator of interferon genes protein; assay: Activation of STING pathway in human THP1-Dual cells assessed as increase in TBK1 phosphorylation at 0.01 to 1 uM measured for 4 hrs immunoblotting analysis; type: cell-based; settings: filed as activator, dose 0.01-1 µM
[20] = target: T1, Stimulator of interferon genes protein; assay: Activation of STING pathway in human THP1-Dual cells assessed as increase in IRF3 phosphorylation at 0.01 to 1 uM measured for 4 hrs by immunoblotting analysis; type: cell-based; settings: filed as activator, dose 0.01-1 µM
[21] = target: T1, Stimulator of interferon genes protein; assay: Activation of STING pathway in human THP1-Dual cells assessed as increase in IFNbeta expression level at 0.01 to 1 uM measured for 24 hrs by chemiluminescence based analysis; type: cell-based; settings: filed as activator, dose 0.01-1 µM
[22] = target: T1, Stimulator of interferon genes protein; assay: Activation of STING pathway in human THP1-Dual cells assessed as increase in IP-10 expression level at 0.01 to 1 uM measured for 24 hrs by chemiluminescence based analysis; type: cell-based; settings: filed as activator, dose 0.01-1 µM
[23] = target: T1, Stimulator of interferon genes protein; assay: Activation of STING pathway in human 293T-Dual hSTING-H232 cells assessed as increase in IFNbeta expression level measured for 24 hrs by SEAP reporter based Quanti-luc assay; type: cell-based; settings: filed as activator, dose 0.01-1 µM, DDE = dose-dependent effect
[24] = target: T1, Stimulator of interferon genes protein; assay: Activation of STING pathway in human 293T-Dual hSTING-H232 cells assessed as increase in ISG expression level measured for 24 hrs by SEAP reporter based Quanti-luc assay; type: cell-based; settings: filed as activator, dose 0.01-1 µM, DDE = dose-dependent effect
[25] = target: T1, Stimulator of interferon genes protein; assay: Activation of STING pathway in human 293T-Dual hSTING-R232 cells assessed as increase in IFNbeta expression level measured for 24 hrs by SEAP reporter based Quanti-luc assay; type: cell-based; settings: filed as activator, dose 0.01-1 µM, DDE = dose-dependent effect
[26] = target: T1, Stimulator of interferon genes protein; assay: Activation of STING pathway in human 293T-Dual hSTING-R232 cells assessed as increase in ISG expression level measured for 24 hrs by SEAP reporter based Quanti-luc assay; type: cell-based; settings: filed as activator, dose 0.01-1 µM, DDE = dose-dependent effect
[27] = target: T2, Stimulator of interferon genes protein (Mus musculus); assay: Activation of STING pathway in mouse RAW-Lucia ISG cells assessed as increase in ISG expression level at 12.5 to 50 uM measured for 24 hrs by Quanti-luc reagent based assay; type: cell-based; settings: filed as activator, dose 12.5-50 µM
4T1 [28] = assay: Antitumour activity against mouse 4T1 cells implanted in BALB/c mouse assessed as tumor growth inhibition at 10 mg/kg, iv administered on day 1,4,7 and measured for 20 days relative to control; type: functional; settings: 4T1, 480 h, time 20 day, read-out: TGI
4T1 [29] = assay: Antitumour activity against mouse 4T1 cells implanted in BALB/c mouse assessed as tumor growth inhibition at 20 mg/kg, iv administered on day 1,4,7 and measured for 20 days relative to control; type: functional; settings: 4T1, 480 h, time 20 day, read-out: TGI
CT26 [30] = assay: Antitumour activity against mouse CT26 cells implanted in BALB/c mouse assessed as suppression of tumor growth at 10 mg/kg, iv administered on day 1,4,7 and measured for 20 days; type: functional, organism-based; settings: time 20.0 day
CT26 [31] = assay: Antitumour activity against mouse CT26 cells implanted in BALB/c mouse assessed as suppression of tumor growth at 5 mg/kg, IT administered on day 1,4,7 and measured for 20 days; type: functional, organism-based; settings: time 20.0 day
CT26 [32] = assay: Antitumor immunity against mouse CT26 cells implanted in BALB/c mouse assessed as increase in IP-10 level in plasma at 10 mg/kg, iv administered on day 1,4,7 for 20 days and measured 6 hrs post last dose; type: functional, organism-based; settings: time 20.0 day
CT26 [33] = assay: Antitumor immunity against mouse CT26 cells implanted in BALB/c mouse assessed as increase in IFN-beta level in plasma at 10 mg/kg, iv administered on day 1,4,7 for 20 days and measured 6 hrs post last dose; type: functional, organism-based; settings: time 20.0 day
CT26 [34] = assay: Antitumor immunity against mouse CT26 cells implanted in BALB/c mouse assessed as increase in IP-10 level in plasma at 5 mg/kg, IT administered on day 1,4,7 for 20 days and measured 6 hrs post last dose; type: functional, organism-based; settings: time 20.0 day
CT26 [35] = assay: Antitumor immunity against mouse CT26 cells implanted in BALB/c mouse assessed as increase in IFN-beta level in plasma at 5 mg/kg, IT administered on day 1,4,7 for 20 days and measured 6 hrs post last dose; type: functional, organism-based; settings: time 20.0 day
[36] = target: T1, Stimulator of interferon genes protein; assay: Inhibition of human wild type STING

Chain of Stimulator of interferon genes protein (Homo sapiens), Q86WV6 [UNDEFINED MUTATION] (Q86WV6 whole entry, looked up, stated change not applied): as the sequence (Q86WV6 whole entry) above
Chain of Stimulator of interferon genes protein (Homo sapiens), Q86WV6 [R293Q] (Q86WV6 whole entry R293Q): as the sequence (Q86WV6 whole entry) above, with R293Q counted along it
Chain of Stimulator of interferon genes protein (Homo sapiens), Q86WV6 [G230A,R293Q] (Q86WV6 whole entry G230A/R293Q): as the sequence (Q86WV6 whole entry) above, with G230A, R293Q counted along it

`CCn1nc(C)cc1C(=O)Nc1nc2cc(C(N)=O)sc2n1C/C=C/Cn1c(NC(=O)c2cc(C)nn2CC)nc2cc(C(N)=O)cc(OCC3CC3)c21` gave a fold change (FC) [1] of 141, a fold change (FC) [2] of 12.6 and an EC50 [3] of 0.28 µM. The EC50 [4] was > 100 µM.
With `O=C(Nc1cc(F)c(F)cc1C(=O)O)c1ccc(N2C=CNC2)nn1` the EC50 [5] was 2.1 µM.
`CCn1nc(C)cc1C(=O)Nc1nc2cc(C(N)=O)sc2n1CCCCn1c(NC(=O)c2cc(C)nn2CC)nc2cc(C(N)=O)sc21` gave a fold change (FC) [1] of 1.15 and a fold change (FC) [2] of 2.63.
In the case of `CCn1nc(C)cc1C(=O)Nc1nc2cc(C(N)=O)sc2n1CCCCn1c(NC(=O)c2cc(C)nn2CC)nc2cc(C(N)=O)cc(OCCCN3CCOCC3)c21`, the fold change (FC) [1] is reported as 8.42 and the fold change (FC) [2] is reported as 0.64.
`CCn1nc(C)cc1C(=O)Nc1nc2cc(C(N)=O)sc2n1C/C=C/Cn1c(NC(=O)c2cc(C)nn2CC)nc2cc(C(N)=O)cc(OC(C)C)c21` gave a fold change (FC) [1] of 60.4, a fold change (FC) [2] of 13.5 and an EC50 [3] of 5.82 µM. The EC50 [4] was 63.7 µM.
For `Nc1ncnc2c1ncn2[C@@H]1O[C@@H]2COP(=O)(O)O[C@H]3[C@@H](O)[C@H](n4cnc5c(N)ncnc54)O[C@@H]3COP(=O)(O)O[C@H]2[C@H]1O`, the EC50 [6] was 0.0513 µM.
For `CCn1nc(C)cc1C(=O)Nc1nc2cc(C(N)=O)sc2n1C/C=C/Cn1c(NC(=O)c2cc(C)nn2CC)nc2cc(C(N)=O)cc(OCCCN3CCOCC3)c21`, the Activity [7] was “Non-Toxic”, the fold change (FC) [1] was 145 and the fold change (FC) [2] was 20.7. The EC50 [3] was 0.0012 µM, the EC50 [4] was 32.8 µM and the ΔTm [8] was 6.6 °C. The ΔTm [9] was 11.1 °C, the ΔTm [10] was 12.4 °C and the ΔTm (Homo sapiens) was 12.8 °C. It also gave a ΔTm (Mus musculus) of 13.3 °C, an IC50 [11] of 0.0006 µM and a half-life [12] of 1.62 h. It also gave an AUC(0-t) at 24 h [13] of 701 ng·h/mL, an AUC(0-inf) [14] of 711 ng·h/mL and a clearance [15] of 26.3 mL/min/kg. The Vd [16] was 1.52 L/kg, the Activity [17] was “Dde” and the Activity [18] was “Dde”. For the same compound, the Activity [19] was “Active”, the Activity [20] was “Active” and the Activity [21] was “Active”. The Activity [22] was “Active”, the Activity [23] was “Dde” and the Activity [24] was “Dde”. For the same compound, the Activity [25] was “Dde”, the Activity [26] was “Dde” and the Activity [27] was “Active”. For the same compound, the inhibition in vivo at 10 mg/kg (4T1 [28]) was 61%, the inhibition in vivo at 20 mg/kg (4T1 [29]) was 74% and the Activity (CT26 [30]) was “Active”. For the same compound, the Activity (CT26 [31]) was “Active”, the Activity (CT26 [32]) was “Active” and the Activity (CT26 [33]) was “Active”. For the same compound, the Activity (CT26 [34]) was “Active” and the Activity (CT26 [35]) was “Active”.
For `O=C(c1ccc([N+](=O)[O-])cc1)N1CCc2cc(S(=O)(=O)N3C[C@@H](c4ccccc4)NC3=O)ccc21`, the EC50 [6] was 0.18 µM.
In the case of `CCn1nc(C)cc1C(=O)/N=c1\[nH]c2cc(C(N)=O)ccc2n1C[C@@H](O)c1ccccc1`, the IC50 [36] is reported as 1.4 µM.
